According to patent US20110166297A1, “MOLECULARLY IMPRINTED SMART POLYMERS (MISPs)” (Sailo Nanotechnologies Ltd., priority 2008, published 2011):

Test: Solubility of Erg-TAD-Py (dissolved concentration by HPLC)
Format: physicochemical

## CC(C)[C@@H](C)/C=C/[C@@H](C)C1CCC2C34C=CC5(C[C@@H](O)CC[C@]5(C)C3CC[C@]12C)n1c(=O)n(CCCc2ccc3ccc5cccc6ccc2c3c56)c(=O)n14 (some centres unmarked) [Erg-TAD-Py, Ergosterol-triazolinedione-pyrene]
10% DMSO in serum (inactivated fetal calf serum)
  Concentration of dissolved Erg-TAD-Py: 7800 ng/mL
10% DMSO in water
  Concentration of dissolved Erg-TAD-Py: 700 ng/mL
30% DMSO in serum (inactivated fetal calf serum)
  Concentration of dissolved Erg-TAD-Py: 8400 ng/mL
30% DMSO in water
  Concentration of dissolved Erg-TAD-Py: 6700 ng/mL
50% DMSO in serum (inactivated fetal calf serum)
  Concentration of dissolved Erg-TAD-Py: 6800 ng/mL
50% DMSO in water
  Concentration of dissolved Erg-TAD-Py: 6000 ng/mL
  Concentration at which ethanol dissolves Erg-TAD-Py: 50000 ng/mL
Molar equivalent of 0.05 mg/ml
  Concentration at which ethanol dissolves Erg-TAD-Py: about 60 uM
